Results on 11 molecules are retold here after ChEMBL document CHEMBL1201862, “PubChem BioAssay data set” (2004).

Some test systems named below: SN12C; UACC-62; CAKI-1; SF-539; RPMI-8226; SW-620; TK-10; NCI-H460; SK-MEL-28; NCI-H522; SNB-75; MDA-MB-231; MDA-MB-435; MCF7; HCT-15; HOP-62; COLO 205; KM12; DU-145; HL-60.
Experiment in all cases: NCI tumour cell line growth inhibition, 48 h

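How tested: cells in 96-well plates exposed to compound for 48 hours at five concentrations. GI50 marks 50% less growth.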 Calls of active or inactive are those of the source. No stated cut-off is given here; in the data, active = GI50 up to about 1.1 µM and inactive = higher.

Turning to `O=C(CCc1cc(O)cc(O)c1)NCCc1cc(O)cc(O)c1`, the GI50 in the experiment on SN12C, in the experiment with UACC-62, in the experiment with CAKI-1, in the experiment on SF-539, in the experiment on RPMI-8226 and with SW-620 was > 100 µM (inactive) throughout. The GI50 with TK-10, in the experiment on NCI-H460, in the experiment on SK-MEL-28, with NCI-H522, in the experiment on SNB-75 and in the experiment with MDA-MB-231 was > 100 µM (inactive) each time. The GI50 was > 100 µM (inactive) in the experiment with MDA-MB-435; > 100 µM (inactive) in the experiment on MCF7; > 100 µM with HCT-15; > 100 µM (inactive) with HOP-62; > 100 µM (inactive) in the experiment with COLO 205; > 100 µM (inactive) in the experiment with KM12. The GI50 in the experiment with DU-145 is > 100 µM (inactive).

For `O=C1Nc2ccc(S(=O)(=O)NCCO)cc2/C1=C1/Nc2ccccc2C1=O`, the GI50 with SN12C is 67.5 µM (inactive); in the experiment with UACC-62, 7.18 µM (inactive); in the experiment on CAKI-1, > 100 µM (inactive); with RPMI-8226, 92.5 µM (inactive); in the experiment on SW-620, 11.9 µM (inactive); with TK-10, 18 µM (inactive). For the same molecule, the GI50 is 30.3 µM (inactive) in the experiment on NCI-H460; > 100 µM (inactive) in the experiment on SK-MEL-28; 1.86 µM (inactive) in the experiment on NCI-H522; 1.97 µM (inactive) in the experiment on SNB-75; 12 µM (inactive) in the experiment on MDA-MB-231; > 100 µM (inactive) in the experiment with MDA-MB-435. For the same molecule, the GI50 was 0.475 µM (active) in the experiment with MCF7; 13.3 µM in the experiment with HCT-15; 16.2 µM (inactive) with HOP-62; 2.82 µM (inactive) with COLO 205; 0.385 µM (active) with KM12; 8 µM (inactive) in the experiment on DU-145.

`O=C1C(Cl)=C(N2CCOCC2)C(=O)c2c(O)ccc(O)c21`: the GI50 with SN12C is 0.207 µM (active); with UACC-62 it was 0.729 µM (active); in the experiment on CAKI-1, 0.433 µM (active); with SF-539 it was 0.486 µM (active); in the experiment on RPMI-8226, 1.84 µM (inactive); with SW-620, 0.156 µM (active). Besides, the GI50 with TK-10 was 0.638 µM (active); in the experiment with NCI-H460 it was 0.881 µM (active); with SK-MEL-28 it was 0.288 µM (active); in the experiment on NCI-H522, 0.286 µM (active); in the experiment on SNB-75, 0.667 µM (active); in the experiment with MDA-MB-231 it was 0.216 µM (active). For the same molecule, the GI50 in the experiment with MDA-MB-435 is 0.204 µM (active); in the experiment with MCF7 it was 0.213 µM (active); in the experiment on HCT-15 it was 0.155 µM; in the experiment with HOP-62, 0.853 µM (active); with COLO 205, 0.19 µM (active); with KM12 it was 1.64 µM (inactive). Besides, in the experiment on DU-145, the GI50 is 1.53 µM (inactive).

For `C/C=C\C(CC(=O)NCCC1CN(S(=O)(=O)C(F)(F)F)c2ccccc21)CC(=O)OC` (stereo not drawn), the GI50 in the experiment on UACC-62 is 34.1 µM (inactive); in the experiment on CAKI-1 it was 56.6 µM (inactive); with RPMI-8226, 31.8 µM (inactive); in the experiment on SW-620 it was 55.8 µM (inactive); in the experiment on NCI-H460, 35.6 µM (inactive); in the experiment with SK-MEL-28, 43.3 µM (inactive). Also, the GI50 in the experiment on NCI-H522 is 18.3 µM (inactive); in the experiment with MDA-MB-231 it was 50.8 µM (inactive); in the experiment with MDA-MB-435 it was > 10 µM (inactive); in the experiment with MCF7, 49.9 µM (inactive); in the experiment with HCT-15 it was 42.8 µM; in the experiment on HOP-62 it was 35.2 µM (inactive). The GI50 is 24.8 µM (inactive) in the experiment on COLO 205, 26.9 µM (inactive) in the experiment with KM12 and > 100 µM (inactive) with DU-145.

As for `COC(=O)C1Cc2c([nH]c3ccccc23)-c2[nH]c3ccccc3c2CC(NC(C)=O)C(=O)NCC(=O)NCC(=O)N1` (stereo not drawn), the GI50 in the experiment on SN12C, in the experiment on UACC-62, with CAKI-1, in the experiment on SF-539, with RPMI-8226 and in the experiment on HL-60 was > 100 µM (inactive) in each case. The GI50 with SW-620, in the experiment on TK-10, in the experiment with NCI-H460, in the experiment with SK-MEL-28, in the experiment with NCI-H522 and in the experiment with SNB-75 was > 100 µM (inactive) in each case. The GI50 with MDA-MB-231 was > 100 µM (inactive); in the experiment with MDA-MB-435, > 100 µM (inactive); in the experiment on HCT-15, > 100 µM; in the experiment on HOP-62, > 100 µM (inactive); in the experiment on COLO 205, > 100 µM (inactive); in the experiment with KM12, > 100 µM (inactive). For the same molecule, the GI50 with DU-145 was > 100 µM (inactive).

For `Cc1ccc(/C=C2\Cc3cc(C)c(C)cc3C2=O)c(C(=O)O)c1`, the GI50 with SN12C is 30.5 µM (inactive); in the experiment on UACC-62, 61.7 µM (inactive); in the experiment on CAKI-1, 45.8 µM (inactive); with SF-539 it was 13.7 µM (inactive); in the experiment with RPMI-8226 it was 40.4 µM (inactive); in the experiment on HL-60, 54.3 µM (inactive). The GI50 in the experiment with SW-620 is 34.6 µM (inactive); with TK-10, > 100 µM (inactive); in the experiment with NCI-H460, 33.7 µM (inactive); in the experiment on SK-MEL-28 it was 52.5 µM (inactive); in the experiment on NCI-H522, 22.1 µM (inactive); in the experiment with SNB-75, 30.3 µM (inactive). In addition, the GI50 in the experiment on MDA-MB-231 was 28.2 µM (inactive); with MCF7, 24.7 µM (inactive); with HCT-15, 27.5 µM; in the experiment with HOP-62, 33.7 µM (inactive); in the experiment on KM12, 35.8 µM (inactive); in the experiment with DU-145 it was 26.7 µM (inactive).

As to `C/C(=N\NC(=O)c1ccccc1O)c1cccc(/C(C)=N/NC(=O)c2ccccc2O)n1`, the GI50 in the experiment on SN12C was 6.07 µM (inactive); with UACC-62, 2.58 µM (inactive); in the experiment on RPMI-8226 it was 14.7 µM (inactive); in the experiment with SW-620 it was 5.74 µM (inactive); in the experiment on TK-10, 18.6 µM (inactive); with NCI-H460, 6.71 µM (inactive). For the same molecule, the GI50 was 12.1 µM (inactive) in the experiment with SNB-75; 19.4 µM (inactive) in the experiment on MDA-MB-231; 41.8 µM (inactive) with MDA-MB-435; 26.2 µM (inactive) with MCF7; 7.55 µM with HCT-15; 5.05 µM (inactive) in the experiment with HOP-62. Further, the GI50 was 6.5 µM (inactive) in the experiment with KM12 and 13.3 µM (inactive) in the experiment with DU-145.

For the molecule `Cc1ccc(-n2cc(-c3ccc(Cl)cc3)c3c(N/N=C4\SCC(=O)N4C)ncnc32)cc1`, the GI50 was 5.6 µM (inactive) with SN12C; 3.44 µM (inactive) in the experiment on UACC-62; 4.23 µM (inactive) in the experiment on CAKI-1; 12 µM (inactive) with SF-539; 12.9 µM (inactive) with RPMI-8226; > 100 µM (inactive) in the experiment with HL-60. The GI50 in the experiment with SW-620 is 16.3 µM (inactive); in the experiment on TK-10 it was 2.64 µM (inactive); with NCI-H460 it was 4.31 µM (inactive); with SK-MEL-28 it was 2.44 µM (inactive); with NCI-H522 it was 5.27 µM (inactive); with MDA-MB-231 it was 4.99 µM (inactive). For the same molecule, the GI50 was 4.23 µM (inactive) in the experiment with MDA-MB-435; 59.3 µM in the experiment with HCT-15; 9.14 µM (inactive) in the experiment with HOP-62; 4.09 µM (inactive) in the experiment on COLO 205; 7.96 µM (inactive) in the experiment on KM12; > 100 µM (inactive) in the experiment on DU-145.

Consider `C=CCC1(O)CC(n2cc(C)c(=O)[nH]c2=O)OC1CO[Si](C)(C)C(C)(C)C` (stereo not drawn), for which the GI50 in the experiment on SN12C is 31.6 µM (inactive); with UACC-62, 35.9 µM (inactive); in the experiment on CAKI-1 it was 54.6 µM (inactive); with SF-539 it was 53.5 µM (inactive); in the experiment on RPMI-8226, 37.4 µM (inactive); with SW-620 it was 73.1 µM (inactive). Also, the GI50 is 38.7 µM (inactive) with NCI-H460; 68.9 µM (inactive) in the experiment with SK-MEL-28; 38 µM (inactive) in the experiment with SNB-75; 64.6 µM (inactive) in the experiment on MDA-MB-231; 41.5 µM (inactive) in the experiment with MDA-MB-435; 47.8 µM (inactive) in the experiment on MCF7. Also, the GI50 is 44.4 µM with HCT-15; > 100 µM (inactive) in the experiment with HOP-62; 21.6 µM (inactive) with COLO 205; 45.3 µM (inactive) with KM12; 45.8 µM (inactive) in the experiment with DU-145.

As for `Cc1oc2nc(N(C)C)nc(NN)c2c1C`, the GI50 in the experiment with SN12C, with UACC-62, in the experiment with CAKI-1, with SF-539, in the experiment on RPMI-8226 and with HL-60 was > 100 µM (inactive) each time. The GI50 in the experiment with SW-620, in the experiment on TK-10, in the experiment with NCI-H460, in the experiment on SK-MEL-28, in the experiment with NCI-H522 and in the experiment on SNB-75 was > 100 µM (inactive) throughout. Further, the GI50 with MDA-MB-231 is > 100 µM (inactive); with MDA-MB-435 it was > 100 µM (inactive); in the experiment with HCT-15, > 100 µM; in the experiment on HOP-62, > 100 µM (inactive); in the experiment on COLO 205, > 100 µM (inactive); in the experiment with KM12, > 100 µM (inactive). In addition, the GI50 in the experiment with DU-145 was > 100 µM (inactive).

For `CCOC(=O)c1cc(C2CCN(Cc3ccccc3)C2=O)c(C(=O)/C=C(/C)N)[nH]1` (stereo not drawn), the GI50 was > 100 µM (inactive) in the experiment on UACC-62; > 100 µM (inactive) with CAKI-1; > 100 µM (inactive) with RPMI-8226; > 100 µM (inactive) in the experiment with SW-620; > 100 µM (inactive) in the experiment on TK-10; 85.5 µM (inactive) in the experiment on NCI-H460. Also, the GI50 is > 100 µM (inactive) with SK-MEL-28; 57.3 µM (inactive) in the experiment with NCI-H522; > 100 µM (inactive) in the experiment with SNB-75; > 100 µM (inactive) in the experiment with MDA-MB-231; > 100 µM (inactive) in the experiment on MDA-MB-435; 96.6 µM (inactive) in the experiment on MCF7. The GI50 is > 100 µM in the experiment with HCT-15; 30.5 µM (inactive) in the experiment on HOP-62; > 100 µM (inactive) in the experiment on COLO 205; > 100 µM (inactive) in the experiment on KM12; > 100 µM (inactive) in the experiment with DU-145.
